Here are results for eleven compounds from patent US20250170248A1, “SMARCA DEGRADERS AND USES THEREOF” (Kymera Therapeutics, Inc., priority 2021, published 2025).

As a reminder, the Dmax is the largest share of the target that was removed. In general, DC50 refers to the concentration at which degradation of the target reaches its halfway point.

Common to all, as to assay type: cell-based
Test [1] addresses T1, SMARCA2 (Homo sapiens, UniProt P51531). Description: SMARCA2 Western blot degradation in MV4-11 cells. Conditions: for Dmax: MV4-11, MV4-11 cells, read-out: SMARCA2 MSD MV411 degradation 24 h: average Dmax %; for DC50: read-out: SMARCA2 MSD MV411 degradation 24 h: Mean external-Abs DC50; for Selectivity in MV411: SMARCA2/4 selectivity. Further details: SMARCA2/SMARCA4 protein degradation selectivity in MV4-11 cells; endogenous in cells; host or cells: MV4-11. (In western blotting, separated proteins are transferred to a membrane and probed.)

Test [2] concerns the target T1, SMARCA2. Description: MSD SMARCA2 degradation in A549 cell line. The following applies: for Dmax: A549, A549 cells; for Dmax / DC50: 24 h; for DC50: read-out: SMARCA2 MSD A549 degradation 24 h: Average external-Abs DC50. Put shortly: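 SMARCA2 protein remaining after 24 h exposure of A549 cells (top concentration 1000 nM, 3-fold dilutions) was measured by MSD electrochemiluminescence immunoassay of cell lysates. Results are given as binned DC50 and maximal degradation (Dmax) codes.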

A further test deals with T2, SMARCA4 (Homo sapiens, UniProt P51532).
T2 construct: SMARCA2/SMARCA4 protein degradation selectivity in MV4-11 cells; endogenous in cells; host or cells: MV4-11
T2 sequence (P51532 whole entry): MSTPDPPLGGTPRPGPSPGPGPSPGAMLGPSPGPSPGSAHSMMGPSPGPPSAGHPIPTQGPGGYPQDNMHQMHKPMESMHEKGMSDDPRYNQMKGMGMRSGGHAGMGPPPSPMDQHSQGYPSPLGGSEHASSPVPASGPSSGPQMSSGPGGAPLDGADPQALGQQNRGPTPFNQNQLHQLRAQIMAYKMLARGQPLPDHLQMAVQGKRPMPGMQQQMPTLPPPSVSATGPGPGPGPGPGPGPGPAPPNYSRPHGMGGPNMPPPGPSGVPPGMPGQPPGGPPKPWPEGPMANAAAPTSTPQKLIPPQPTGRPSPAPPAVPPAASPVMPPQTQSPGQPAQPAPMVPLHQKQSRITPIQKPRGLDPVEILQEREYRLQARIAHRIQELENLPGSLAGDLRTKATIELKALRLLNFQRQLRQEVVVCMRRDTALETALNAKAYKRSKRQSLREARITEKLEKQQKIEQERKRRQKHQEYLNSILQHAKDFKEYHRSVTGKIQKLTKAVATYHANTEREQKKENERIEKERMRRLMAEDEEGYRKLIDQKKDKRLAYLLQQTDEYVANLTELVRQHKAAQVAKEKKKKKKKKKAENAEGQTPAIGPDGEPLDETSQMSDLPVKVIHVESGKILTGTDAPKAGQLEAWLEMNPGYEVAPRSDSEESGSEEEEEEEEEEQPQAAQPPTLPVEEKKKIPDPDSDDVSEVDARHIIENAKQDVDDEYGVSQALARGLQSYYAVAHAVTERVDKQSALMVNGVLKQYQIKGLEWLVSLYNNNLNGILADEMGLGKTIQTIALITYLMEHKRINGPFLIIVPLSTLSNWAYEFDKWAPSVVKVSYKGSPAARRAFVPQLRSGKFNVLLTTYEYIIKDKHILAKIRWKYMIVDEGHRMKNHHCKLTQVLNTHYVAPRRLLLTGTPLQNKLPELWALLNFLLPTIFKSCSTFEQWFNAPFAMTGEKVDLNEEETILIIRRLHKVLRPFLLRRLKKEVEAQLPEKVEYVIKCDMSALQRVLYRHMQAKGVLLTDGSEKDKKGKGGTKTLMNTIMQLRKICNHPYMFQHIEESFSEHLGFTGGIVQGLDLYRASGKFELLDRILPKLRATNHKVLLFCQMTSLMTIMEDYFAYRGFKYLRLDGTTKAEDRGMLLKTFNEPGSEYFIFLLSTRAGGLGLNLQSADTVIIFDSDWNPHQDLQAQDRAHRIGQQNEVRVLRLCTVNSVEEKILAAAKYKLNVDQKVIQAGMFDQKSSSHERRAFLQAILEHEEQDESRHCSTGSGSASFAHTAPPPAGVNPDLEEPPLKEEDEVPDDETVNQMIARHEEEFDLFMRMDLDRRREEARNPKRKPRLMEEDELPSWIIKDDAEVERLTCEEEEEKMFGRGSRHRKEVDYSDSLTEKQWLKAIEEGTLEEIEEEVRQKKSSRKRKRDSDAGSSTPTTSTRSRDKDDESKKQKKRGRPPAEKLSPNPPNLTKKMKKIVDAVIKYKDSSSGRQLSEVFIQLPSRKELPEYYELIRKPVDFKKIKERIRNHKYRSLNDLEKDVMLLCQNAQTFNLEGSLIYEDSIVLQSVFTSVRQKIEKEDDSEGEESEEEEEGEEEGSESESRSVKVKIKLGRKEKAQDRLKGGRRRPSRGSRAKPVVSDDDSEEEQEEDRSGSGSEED
Description: SMARCA4 Western blot degradation in MV4-11 cells. Conditions: for Dmax: MV4-11, MV4-11 cells, read-out: SMARCA4 MSD MV411 degradation 24 h: average Dmax %; for Dmax / DC50: 24 h; for DC50: read-out: SMARCA4 MSD MV411 degradation 24 h: Mean external-Abs DC50. An outline of the steps: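 Protein levels quantified by LI-COR Western blot (beta-actin loading control) in RIPA lysates of MV4-11 cells after 24 h compound exposure. Degradation reported as DC50, Dmax % at 24 h and SMARCA2 vs SMARCA4 selectivity, each binned into letter codes.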

T1 sequence (P51531 whole entry): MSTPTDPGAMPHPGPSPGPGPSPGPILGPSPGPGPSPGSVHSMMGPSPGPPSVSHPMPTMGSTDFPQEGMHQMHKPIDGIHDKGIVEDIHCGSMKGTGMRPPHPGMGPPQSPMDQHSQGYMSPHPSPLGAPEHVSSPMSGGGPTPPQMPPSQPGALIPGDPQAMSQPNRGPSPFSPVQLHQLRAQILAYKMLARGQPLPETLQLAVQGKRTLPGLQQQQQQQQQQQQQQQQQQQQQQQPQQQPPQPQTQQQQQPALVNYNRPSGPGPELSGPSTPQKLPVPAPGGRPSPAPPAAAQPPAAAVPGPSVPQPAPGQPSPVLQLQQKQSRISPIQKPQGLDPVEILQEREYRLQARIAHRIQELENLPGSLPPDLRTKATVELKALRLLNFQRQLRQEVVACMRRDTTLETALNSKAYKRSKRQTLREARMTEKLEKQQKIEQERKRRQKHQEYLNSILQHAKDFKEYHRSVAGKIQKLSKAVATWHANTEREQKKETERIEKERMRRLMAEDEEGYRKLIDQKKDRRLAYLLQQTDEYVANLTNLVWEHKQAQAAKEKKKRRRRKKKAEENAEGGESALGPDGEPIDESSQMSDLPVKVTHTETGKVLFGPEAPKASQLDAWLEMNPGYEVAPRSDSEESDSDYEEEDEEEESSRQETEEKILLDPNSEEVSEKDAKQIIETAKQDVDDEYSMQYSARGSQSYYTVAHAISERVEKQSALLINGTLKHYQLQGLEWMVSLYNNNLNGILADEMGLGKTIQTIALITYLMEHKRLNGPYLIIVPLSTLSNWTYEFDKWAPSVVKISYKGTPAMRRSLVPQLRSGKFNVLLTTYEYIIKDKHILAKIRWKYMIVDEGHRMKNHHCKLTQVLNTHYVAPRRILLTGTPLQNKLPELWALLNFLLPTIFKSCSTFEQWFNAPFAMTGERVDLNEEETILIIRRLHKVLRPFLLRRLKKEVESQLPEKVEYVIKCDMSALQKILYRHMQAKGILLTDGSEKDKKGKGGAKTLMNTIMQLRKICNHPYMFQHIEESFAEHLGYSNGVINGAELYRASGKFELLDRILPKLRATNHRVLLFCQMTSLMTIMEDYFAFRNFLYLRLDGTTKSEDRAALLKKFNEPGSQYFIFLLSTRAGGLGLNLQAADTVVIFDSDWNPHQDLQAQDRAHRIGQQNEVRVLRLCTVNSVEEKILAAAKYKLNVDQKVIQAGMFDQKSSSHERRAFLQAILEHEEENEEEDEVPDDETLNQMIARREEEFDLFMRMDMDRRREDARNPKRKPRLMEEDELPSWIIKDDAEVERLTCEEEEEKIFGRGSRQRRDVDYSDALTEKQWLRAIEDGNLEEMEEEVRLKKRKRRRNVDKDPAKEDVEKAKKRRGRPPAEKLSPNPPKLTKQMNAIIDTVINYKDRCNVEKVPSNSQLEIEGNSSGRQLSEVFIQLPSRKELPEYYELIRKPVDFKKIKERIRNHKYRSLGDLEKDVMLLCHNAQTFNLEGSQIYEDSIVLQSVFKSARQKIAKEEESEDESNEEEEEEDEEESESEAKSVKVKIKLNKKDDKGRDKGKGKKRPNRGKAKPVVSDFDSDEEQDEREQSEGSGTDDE

Consider `C#Cc1ccc(CNC(=O)[C@@H]2C[C@@H](O)CN2C(=O)[C@@H](NC(=O)N2CC3(CC(N4CCC(N5CCC(N6CCc7[nH]c8nnc(-c9ccccc9O)cc8c7[C@@H]6C)CC5)CC4)C3)C2)C(C)(C)C)c(F)c1` [I-182], for which the Dmax at SMARCA2 [1] (24 h) was 50 to 70%; on SMARCA2 [2] it was above 90%; at SMARCA4 it was 70 to 90%. Moreover, the DC50 on SMARCA2 [1] (MV4-11 cells, 24 h) was 10 to 100 nM; on SMARCA2 [2] (A549 cells), above 100 nM; at SMARCA4 (MV4-11 cells) it was above 100 nM. Also, on SMARCA2 [1] (MV4-11 cells), the “Selectivity in MV411” value was “D (D (<10 fold))”.
In the case of `Cc1ncsc1-c1ccc(CNC(=O)[C@@H]2C[C@@H](O)CN2C(=O)C(c2cc(N3CC4(CCC(N5CCC(c6cnc(N7CCc8[nH]c9nnc(-c%10ccccc%10O)cc9c8[C@H]7C)nc6)CC5)CC4)C3)no2)C(C)C)cc1` (single isomer, unassigned) [I-14], the greatest degradation seen (Dmax) at SMARCA2 [1] (24 h) is above 90%; at SMARCA2 [2] it was 70 to 90%; at SMARCA4, above 90%. Also, the DC50 was below 1 nM at SMARCA2 [1] (MV4-11 cells, 24 h); below 10 nM on SMARCA2 [2] (A549 cells); 1 to 10 nM at SMARCA4 (MV4-11 cells). Besides, on SMARCA2 [1] (MV4-11 cells), the “Selectivity in MV411” value is on record as “D (D (<10 fold))”.
On to `C#Cc1ccc([C@H](CCO)NC(=O)[C@@H]2C[C@@H](O)CN2C(=O)[C@@H](NC(=O)N2CC3(CC(N4CCC(c5cnc(N6CCc7[nH]c8nnc(-c9ccccc9O)cc8c7[C@H]6C)nc5)CC4)C3)C2)C(C)(C)C)cc1` [I-169], for which the figures for the Dmax on SMARCA2 [1] (24 h), at SMARCA2 [2] and at SMARCA4 were 70 to 90%, above 90% and below 50%, respectively. The DC50 at SMARCA2 [1] (MV4-11 cells, 24 h) was 1 to 10 nM; on SMARCA2 [2] (A549 cells), 10 to 50 nM; at SMARCA4 (MV4-11 cells), above 100 nM. The “Selectivity in MV411” value on SMARCA2 [1] (MV4-11 cells) is given as “B (B (>100-500 fold))”.
For the compound `C#Cc1ccc(CNC(=O)[C@@H]2C[C@@H](O)CN2C(=O)[C@@H](NC(=O)[C@H]2CCC3(CC2)C[C@H](N2CCC(N4CC5(CC(N6CCN7c8cc(-c9ccccc9O)nnc8NC[C@H]7C6)C5)C4)CC2)C3)C(C)(C)C)c(Cl)c1` (single isomer, unassigned) [I-220], the Dmax was 70 to 90% on SMARCA2 [1] (24 h), above 90% at SMARCA2 [2] and below 50% at SMARCA4. For the same compound, the DC50 was 10 to 100 nM at SMARCA2 [1] (MV4-11 cells, 24 h); above 100 nM on SMARCA2 [2] (A549 cells); above 100 nM on SMARCA4 (MV4-11 cells). Besides, the “Selectivity in MV411” value on SMARCA2 [1] (MV4-11 cells) is reported as “B (B (>100-500 fold))”.
Turning to `C#Cc1ccc(CNC(=O)[C@@H]2C[C@@H](O)CN2C(=O)[C@@H](NC(=O)N2CC3(CC(N4CCC(N5CC6(CC(N7CCc8[nH]c9nnc(-c%10ccccc%10O)cc9c8[C@H]7C)C6)C5)CC4)C3)C2)C(C)(C)C)cc1` [I-207], the Dmax on SMARCA2 [1] (24 h) was 70 to 90%; at SMARCA2 [2], above 90%; at SMARCA4, below 50%. The DC50 on SMARCA2 [1] (MV4-11 cells, 24 h) was 1 to 10 nM; at SMARCA2 [2] (A549 cells) it was above 100 nM; on SMARCA4 (MV4-11 cells), above 100 nM. For the same compound, the “Selectivity in MV411” value on SMARCA2 [1] (MV4-11 cells) is “B (B (>100-500 fold))”.
With `C#Cc1ccc(CNC(=O)[C@@H]2C[C@@H](O)CN2C(=O)[C@@H](NC(=O)[C@H]2CCC3(CC2)C[C@H](N2CCC(c4cnc(N5CCN6c7cc(-c8ccccc8O)nnc7NC[C@H]6C5)nc4)CC2)C3)C(C)(C)C)c(Cl)c1` (single isomer, unassigned) [I-98], the Dmax is 70 to 90% on SMARCA2 [1] (24 h), above 90% on SMARCA2 [2] and below 50% at SMARCA4. For the same compound, the DC50 was 1 to 10 nM on SMARCA2 [1] (MV4-11 cells, 24 h); 10 to 50 nM at SMARCA2 [2] (A549 cells); above 100 nM on SMARCA4 (MV4-11 cells). For the same compound, at SMARCA2 [1] (MV4-11 cells), the “Selectivity in MV411” value was “A (A (>500 fold))”.
Take `C#Cc1ccc([C@H](C)NC(=O)[C@@H]2C[C@@H](O)CN2C(=O)[C@@H](NC(=O)N2CC3(CC(N4CCC(c5cnc(N6CCc7[nH]c8nnc(-c9ccccc9O)cc8c7[C@H]6C)nc5)CC4)C3)C2)C(C)(C)C)cc1` [I-151]: the maximal degradation (Dmax) at SMARCA2 [1] (24 h) is 70 to 90%; at SMARCA2 [2], above 90%; at SMARCA4, 50 to 70%. For the same compound, the DC50 was 1 to 10 nM on SMARCA2 [1] (MV4-11 cells, 24 h); 10 to 50 nM on SMARCA2 [2] (A549 cells); above 100 nM at SMARCA4 (MV4-11 cells). Besides, at SMARCA2 [1] (MV4-11 cells), the “Selectivity in MV411” value is recorded as “C (C (10-100 fold))”.
Take `C#Cc1ccc(CNC(=O)[C@@H]2C[C@@H](O)CN2C(=O)[C@@H](NC(=O)N2CC3(CC(N4CC5(CC(N6CCC(N7CCc8[nH]c9nnc(-c%10ccccc%10O)cc9c8[C@H]7C)CC6)C5)C4)C3)C2)C(C)(C)C)cc1` [I-205]: the Dmax is below 50% on SMARCA2 [1] (24 h), above 90% on SMARCA2 [2] and below 50% at SMARCA4. Also, the DC50 on SMARCA2 [1] (MV4-11 cells, 24 h) was above 100 nM; on SMARCA2 [2] (A549 cells) it was above 100 nM; at SMARCA4 (MV4-11 cells), above 100 nM. Further, the “Selectivity in MV411” value on SMARCA2 [1] (MV4-11 cells) is “C (C (10-100 fold))”.
As for `C#Cc1ccc(CNC(=O)[C@@H]2C[C@@H](O)CN2C(=O)[C@@H](NC(=O)N2CC3(CC(N4CCC(c5cnc(N6CCc7[nH]c8nnc(-c9ccccc9O)cc8c7[C@H]6C)nc5)CC4)C3)C2)C(C)(C)CCOCC(=O)O)cc1` (single isomer, unassigned) [I-262], the greatest degradation seen (Dmax) on SMARCA2 [1] (24 h) was 70 to 90%; on SMARCA2 [2] it was 50 to 70%; on SMARCA4, 50 to 70%. For the same compound, the DC50 on SMARCA2 [1] (MV4-11 cells, 24 h) was 10 to 100 nM; at SMARCA2 [2] (A549 cells), above 100 nM; on SMARCA4 (MV4-11 cells), above 100 nM. Also, on SMARCA2 [1] (MV4-11 cells), the “Selectivity in MV411” value is “C (C (10-100 fold))”.
`C#Cc1ccc(CNC(=O)[C@@H]2C[C@@H](O)CN2C(=O)[C@@H](NC(=O)N2CCC(CN3CCC(N4CCC(N5CCc6[nH]c7nnc(-c8ccccc8O)cc7c6[C@H]5C)CC4)CC3)CC2)C(C)(C)C)cc1` [I-189]: the figures for the Dmax at SMARCA2 [1] (24 h), at SMARCA2 [2] and on SMARCA4 were below 50%, 50 to 70% and below 50%, respectively. Also, the DC50 on SMARCA2 [1] (MV4-11 cells, 24 h) is above 100 nM; at SMARCA2 [2] (A549 cells), above 100 nM; at SMARCA4 (MV4-11 cells), above 100 nM. Also, the “Selectivity in MV411” value on SMARCA2 [1] (MV4-11 cells) is “C (C (10-100 fold))”.
As to `C#Cc1ccc(CNC(=O)[C@@H]2C[C@@H](O)CN2C(=O)[C@@H](NC(=O)[C@H]2CCC3(CC2)C[C@H](N2CCC(N4CC5(CC(N6CCN7c8cc(-c9ccccc9O)nnc8NC[C@H]7C6)C5)C4)CC2)C3)C(C)(C)C)cc1` (single isomer, unassigned) [I-237], at SMARCA2 [1] (MV4-11 cells, 24 h), the “SMARCA2 MSD MV411 degradation 24 h: average Dmax %” value is reported as “B (B (>70-90% degradation))” and the DC50 is 1 to 10 nM. In addition, the “Selectivity in MV411” value on SMARCA2 [1] (MV4-11 cells) is on record as “B (B (>100-500 fold))”. Moreover, at SMARCA2 [2] (A549 cells), the “SMARCA2 MSD A549 degradation 24 h: Average Dmax %” value is given as “A (A (>90% degradation))” and the DC50 lay in the range of 50 to 100 nM. For the same compound, at SMARCA4 (MV4-11 cells), the “SMARCA4 MSD MV411 degradation 24 h: average Dmax %” value was “D (D (<50% degradation))” and the DC50 was above 100 nM.
